In patent publication US20240016781A1, “TREATMENT OF KRAS MUTANT CANCERS” (MEI Pharma, Inc., priority 2020, published 2024):
Like-named read-outs stand apart in the source and are kept apart here.

How the values were obtained:
Experiment in all cases: 72-hour CellTiter-Glo 2.0 growth inhibition screen (single agent, 9x9 combination dose matrix);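 on Best CI Level: inhibition effect level at which the best CI was calculated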
Format in all cases: cell-based
Gp2D = conditions: for EC50: GP2d
Panc 04.03 = conditions: for EC50 / Response Area: Panc 04.03, Pancreas
HCC44 = conditions: for EC50: HCC44, 72 h
SW48 = conditions: for EC50: SW48, 72 h
[1] = Gp2D (KRAS G12D), enhancer + MEI-522 (Voruciclib), 72 h;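 on Best CI Level: inhibition effect level at which the best CI was calculated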
[2] = Gp2D, Colorectal, Additional Single Agent Responses (inhibition, % I), 72 h
[3] = enhancer combined with MEI-522 (Voruciclib), Gp2D (Colorectal), 72 hours, inhibition data
[4] = Panc 04.03 (KRAS G12D), enhancer + MEI-522 (Voruciclib), 72 h;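 on Best CI Level: inhibition effect level at which the best CI was calculated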
[5] = enhancer combined with MEI-522 (Voruciclib), Panc 04.03 (Pancreas), 72 hours, inhibition data
[6] = HCC44 (KRAS G12C), enhancer + MEI-522 (Voruciclib), 72 h;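 on Best CI Level: inhibition effect level at which the best CI was calculated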
[7] = Homo sapiens, HCC44, Lung, Additional Single Agent Responses (inhibition, % I), 72 h
[8] = Homo sapiens, HCC44, Lung, growth inhibition (GI) curve, single agent, 72 h
[9] = enhancer combined with MEI-522 (Voruciclib), HCC44 (Lung), 72 hours, inhibition data
[10] = Homo sapiens, SW48, Colorectal, Additional Single Agent Responses (inhibition, % I), 72 h
[11] = Homo sapiens, SW48, Colorectal, growth inhibition (GI) curve, single agent, 72 h
[12] = SW48 (KRAS WT), enhancer + MEI-522 (Voruciclib), 72 h;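 on Best CI Level: inhibition effect level at which the best CI was calculated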
[13] = enhancer combined with MEI-522 (Voruciclib), SW48 (Colorectal), 72 hours, inhibition data

## CC[C@@H]1C(=O)N(C)c2cnc(Nc3ccc(C(=O)N[C@H]4CC[C@H](N5CCN(CC6CC6)CC5)CC4)cc3OC)nc2N1C(C)C [Volasertib]
Gp2D; 72 h, Colorectal, Additional Single Agent Responses (inhibition, % I)
  EC50: 2.1 nM
Gp2D; 72 h, Colorectal, growth inhibition (GI) curve, single agent
  EC50: 2.5 nM
Gp2D; [1]
  Best CI: 0.59
  Bliss Volume: 9.40
  HSA volume: 0.44
  Loewe Volume: 1.73
  Synergy Score: 15.26
Gp2D; [2]
  IC50: 2.4 nM
  Response Area: 4.53
Gp2D; Gp2D, Colorectal, Additional Single Agent Responses, 72 h, read-out: Max Response (% I)
  Emax: 91%
Gp2D; Gp2D, Colorectal, growth inhibition (GI) curve, single agent, 72 h
  GI50: 2.2 nM
Gp2D; Gp2D, Colorectal, growth inhibition (GI), AUC, single agent, 72 h
  Response Area: 6.83
Gp2D; Gp2D, Colorectal, growth inhibition (GI), single agent, 72 h, read-out: Max Response (% GI)
  Emax: 161%
Gp2D; [3]
  Best CI: 0.16
  Best CI Level: 80
  Bliss Volume: −1.26
  HSA volume: −0.27
  Loewe Volume: −0.15
  Synergy Score: 2.39
Panc 04.03; Homo sapiens, Panc 04.03, 72 h
  GI50: 4.6 nM
  IC50: 5.9 nM
Panc 04.03; Homo sapiens, Panc 04.03, 72 h, Additional Single Agent Responses (inhibition, % I), 72 h
  EC50: 4.2 nM
Panc 04.03; Homo sapiens, Panc 04.03, 72 h, growth inhibition (GI) curve, single agent, 72 h
  EC50: 4.2 nM
Panc 04.03; Homo sapiens, Panc 04.03, 72 h, read-out: Max Response (% GI)
  Emax: 87%
Panc 04.03; Homo sapiens, Panc 04.03, 72 h, read-out: Max Response (% I)
  Emax: 64%
Panc 04.03; [4]
  Best CI: 0.74
  Bliss Volume: 4.14
  HSA volume: 2.74
  Loewe Volume: 1.36
  Synergy Score: 7.71
Panc 04.03; Additional Single Agent Responses (inhibition, % I), 72 h
  Response Area: 2.78
Panc 04.03; growth inhibition (GI), AUC, single agent, 72 h
  Response Area: 3.75
Panc 04.03; [5]
  Best CI: 0.67
  Best CI Level: 80
  Bliss Volume: −0.87
  HSA volume: 1.03
  Loewe Volume: 0.18
  Synergy Score: 2.30
HCC44; [6]
  Best CI: 0.55
  Bliss Volume: 6.88
  HSA volume: 2.51
  Loewe Volume: 0.65
  Synergy Score: 6.97
HCC44; HCC44, Lung, Additional Single Agent Responses (inhibition, % I), 72 h
  Response Area: 4.07
HCC44; HCC44, Lung, growth inhibition (GI), AUC, single agent, 72 h
  Response Area: 5.39
HCC44; [7]
  EC50: 4.2 nM
  IC50: 6.3 nM
HCC44; [8]
  EC50: 4.5 nM
  GI50: 4.4 nM
HCC44; Homo sapiens, HCC44, Lung, Additional Single Agent Responses, 72 h, read-out: Max Response (% I)
  Emax: 81%
HCC44; Homo sapiens, HCC44, Lung, growth inhibition (GI), single agent, 72 h, read-out: Max Response (% GI)
  Emax: 113%
HCC44; [9]
  Best CI: 0.83
  Bliss Volume: −1.88
  HSA volume: 0.12
  Loewe Volume: −0.92
  Synergy Score: 1.13
HCC44; enhancer combined with MEI-522 (Voruciclib), HCC44 (Lung), 72 hours, inhibition data, unit assumed
  Best CI Level: 80%
SW48; [10]
  EC50: 4.7 nM
  IC50: 4.9 nM
SW48; [11]
  EC50: 4.9 nM
  GI50: 4.6 nM
SW48; Homo sapiens, SW48, Colorectal, Additional Single Agent Responses, 72 h, read-out: Max Response (% I)
  Emax: 95%
SW48; Homo sapiens, SW48, Colorectal, growth inhibition (GI), single agent, 72 h, read-out: Max Response (% GI)
  Emax: 174%
SW48; [12]
  Best CI: 0.11
  Bliss Volume: 8.81
  HSA volume: −0.59
  Loewe Volume: 1.23
  Synergy Score: 11.75
SW48; SW48, Colorectal, Additional Single Agent Responses (inhibition, % I), 72 h
  Response Area: 4.47
SW48; SW48, Colorectal, growth inhibition (GI), AUC, single agent, 72 h
  Response Area: 6.76
SW48; [13]
  Best CI: 0.60
  Bliss Volume: 0.08
  HSA volume: 0.40
  Loewe Volume: 0.43
  Synergy Score: 1.83
SW48; enhancer combined with MEI-522 (Voruciclib), SW48 (Colorectal), 72 hours, inhibition data, unit assumed
  Best CI Level: 20%
